In ChEMBL document CHEMBL1201862, “PubChem BioAssay data set” (2004) one finds AC50 and IC50 data, which are given here for twelve compounds.

SMILES strings stand for the structures. Active and inactive are the calls of the source.

Assay [1] can be described thus: growth inhibition of yeast DHODH-expressing 3D7 parasites – SYBR Green, dry powder samples, dose response (AID 1159570).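 Note: parasite growth measured after 72 hours of compound exposure.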 The format is functional, cell-based.
The nature of assay [2]: toxicity to human HepG2 hepatoma cells – cell-based, plate reader, dry powder samples, cytotoxicity control, dose response (AID 1159569).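 Note: inhibitor potency with signal falling toward the positive control level.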 The format is functional.
The nature of assay [3]: Dd2 parasite growth inhibition in erythrocytes – SYBR Green, dry powder samples, set 9, dose response (AID 1159568). Type of assay: functional, cell-based.
The nature of assay [4]: P. falciparum Dd2 growth inhibitors, dose response, SYBR Green, cherry-picked samples (AID 1159567). Type of assay: functional, cell-based.
Assay [5] in a line: Dd2 malaria parasite growth inhibition potency – SYBR Green, dry powder samples, dose response (AID 1159566).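 Note: potency for growth inhibition with lower SYBR green DNA signal.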 The format is functional, cell-based.
Assay [6] is described as follows: growth inhibition of PfATP4-mutant resistant parasites – NITD609-resistant line, SYBR Green, dry powder, dose response (AID 1159571).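 Note: parasites synchronized at ring stage by sorbitol before testing.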 The format is functional, cell-based.
Assay [7] is described as follows: toxicity to human hepatoma HepG2 cells – cell-based, cherry-picked samples, cytotoxicity control, dose response (AID 1159577). The format is functional.
Assay [8] deals with RNA-editing ligase 1, mitochondrial (Trypanosoma brucei brucei, UniProt P86926). The assay is described as follows: inhibition of trypanosome RNA editing ligase – biochemical, fluorescence, Trypanosoma brucei, dose response (AID 1117295). The format is functional.
Another assay addresses T1, Estrogen receptor (Homo sapiens, UniProt P03372).
T1 sequence (P03372 whole entry): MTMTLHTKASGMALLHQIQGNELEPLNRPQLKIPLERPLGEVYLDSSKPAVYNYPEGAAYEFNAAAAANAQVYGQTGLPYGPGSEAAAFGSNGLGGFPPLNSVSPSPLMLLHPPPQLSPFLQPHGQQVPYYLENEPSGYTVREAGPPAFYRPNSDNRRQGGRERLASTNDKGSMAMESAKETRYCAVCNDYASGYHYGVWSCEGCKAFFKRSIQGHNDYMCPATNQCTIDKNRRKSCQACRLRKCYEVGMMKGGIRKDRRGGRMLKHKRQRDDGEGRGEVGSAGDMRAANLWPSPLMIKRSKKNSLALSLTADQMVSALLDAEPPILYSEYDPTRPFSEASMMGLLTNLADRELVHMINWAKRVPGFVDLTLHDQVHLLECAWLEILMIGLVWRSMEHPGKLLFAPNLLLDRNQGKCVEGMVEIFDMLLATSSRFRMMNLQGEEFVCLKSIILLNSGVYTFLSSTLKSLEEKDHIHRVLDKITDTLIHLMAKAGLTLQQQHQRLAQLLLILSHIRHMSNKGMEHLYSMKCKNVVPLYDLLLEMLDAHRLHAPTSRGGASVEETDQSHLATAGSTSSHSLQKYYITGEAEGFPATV

Assay [9] has as its target T2, Estrogen receptor beta (Homo sapiens, UniProt Q92731).
The target of assay [10] is T2, Estrogen receptor beta. Kind of assay: blockers of SRC-3 recruitment to ERβ – biochemical, ELISA, streptavidin-HRP readout, orthogonal assay, confirmation (AID 1060). On the technique in general: An ELISA detects its analyte on a solid surface through an enzyme-linked reagent.
The nature of assay [11]: T. cruzi growth inhibition in host cells, dose response, cell-based, plate reader, dry powder, set 2 (AID 652275). Type of assay: functional.
The target of another assay is Major prion protein (Homo sapiens, UniProt P04156). Type of assay: functional, cell-based.
Assay [12] in a line: cells.
A short description of assay [13]: viability loss in HepG2 hepatoma cells – cell-based, cherry-picks, set 5, cytotoxicity control, dose response (AID 1053118). Type of assay: functional.
Assay [14] can be described thus: viability inhibitors of stage V gametocytes – luminescence, dose response (AID 1117278).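 Note: gametocytes exposed to compound for 24 hours.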 Type of assay: functional, cell-based.
Assay [15] is described as follows: viability loss in human Jurkat cells – cell-based, luminescence, cytotoxicity control for P. falciparum gametocyte viability project, dose response (AID 1117277).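 Note: potency reflects loss of cellular ATP meaning fewer viable cells.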 The format is functional.
The target of the next assay is Paired box protein Pax-8 (Homo sapiens, UniProt Q06710). The assay is described as follows: PAX8 transcriptional activity inhibition in RMG-I – RMG-I cells, luciferase, cherry-pick, dose response (AID 687027).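 Note: luciferase reporter driven by Pax8 target thyroperoxidase promoter measured by SteadyGlo luminescence.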 The format is functional, cell-based.
Assay [16] can be described thus: toxicity toward immortalized ovarian surface epithelium – cell-based, plate reader, dry powder samples, cytotoxicity control for PAX8 inhibitor project, dose response (AID 743045). Type of assay: functional.
Assay [17] in a line: OVCAR-3 cell viability loss – plate reader, dry powder samples, PAX8 inhibitor project, dose response (AID 743044). Type of assay: functional, cell-based.
Assay [18] can be described thus: IGROV1 cell killing – plate reader, dry powder samples, PAX8 inhibitor project, dose response (AID 743043). The format is functional, cell-based. The following applies: IGROV-1.
Assay [19] in a line: general cell-killing toxicity readout – plate reader, dry powder samples, cytotoxicity control for PAX8 inhibitor project, dose response (AID 743021). Type of assay: functional, cell-based.
Assay [20] can be described thus: OVCAR8 cell viability loss – plate reader, dry powder samples, PAX8 project, dose response (AID 743197). The format is functional, cell-based. The following applies: OVCAR-8.
Assay [21] in a line: cells. This is another data set of the same source.

`COc1ccc2c3c(n(C)c2c1)[C@H](CO)N(Cc1ccc2c(c1)OCO2)CC31CN(C(=O)c2ccc3c(c2)OCO3)C1`: the AC50 (commonly the concentration at which the activity in the assay is half-maximal) in [1] was 141 nM (active); in assay [2] it was > 100 µM (inactive); in assay [3], 0.236 µM (active); in assay [4], 540 nM (active); in assay [5], 130 nM (active); in assay [6], 147 nM (active).
With `OC[C@@H]1Nc2ccc(C#Cc3ccc(F)cc3)cc2[C@H]2NCC[C@@H]12`, the half-maximal activity concentration (AC50) in [1] is 1150 nM (active); in assay [2], 32.6 µM (active); in assay [4] it was 2360 nM (active); in [5] it was 822 nM (active); in [7], 25.1 µM (active); in [6], 1420 nM (active).
Turning to `COC(=O)C1=C(C)N(Cc2ccc(C(F)(F)F)cc2)C(NCc2ccccc2C(F)(F)F)=NC1c1ccc(F)cc1` (configuration not stated), the IC50 (as a rule, the midpoint of a concentration-inhibition curve) in assay [8] is > 96.6 µM (inactive).
As for `Cc1occc1-c1nnc(SCc2cc(=O)n3cc(Br)ccc3n2)n1C`, the results for the IC50 against Estrogen receptor, against Estrogen receptor beta [9] and on Estrogen receptor beta [10] were > 50 µM (not active), > 50 µM (not active) and 468 nM (not active), respectively.
On to `C[C@@H]1CN([C@H](C)CO)C(=O)c2cc(N(C)C)ccc2O[C@@H](C)CCCCO[C@H]1CN(C)S(=O)(=O)c1ccc(F)cc1`, for which the AC50 in assay [3] was 10.5 µM (active).
Turning to `CN(C)C(=O)c1cccc(-c2ccc([C@H]3[C@H](CO)N4CCCCN(C(=O)C5CCC5)C[C@@H]34)cc2)c1`, the AC50 in assay [11] is 296 nM (active).
As for `CCOC(=O)CSc1nc(-c2ccccc2)nc2ccc(F)cc12`, the IC50 at Major prion protein is 1.97 µM (active); in “cells [12]” it was > 138 µM (inactive).
In the case of `C[C@H]1CN([C@@H](C)CO)C(=O)c2cc(NC(=O)CCCN(C)C)ccc2O[C@H]1CN(C)Cc1ccc(-c2ccccc2)cc1`, the concentration at half-maximal activity (AC50) in [13] is 44.9 µM (active).
In the case of `Cc1nnc(NC(=O)c2ccc(S(=O)(=O)N3CCc4ccccc4C3)cc2)o1`, the IC50 was > 109 µM (inactive) in assay [14] and 80.6 µM (inactive) in assay [15].
`Cc1cc(C)c2nc(SC3CCOC3=O)cc(C)c2c1` (configuration not stated): the IC50 at Major prion protein is 3.66 µM (active); in “cells [12]”, > 138 µM (inactive).
On to `COc1cccc(S(=O)(=O)N2C[C@@H]3N[C@H](C2)[C@@H]3c2ccc(/C=C/c3ccccc3)cc2)c1`, for which the AC50 was 9.43 µM (active) on Paired box protein Pax-8; 36.1 µM (active) in assay [16]; 40.8 µM (active) in assay [17]; 58 µM (active) in assay [18]; 33.7 µM (active) in assay [19]; 48.9 µM (active) in assay [20].
On to `CCOC(=O)c1cc2c(=O)n3ccccc3nc2n(CCCOC)/c1=N\C(=O)c1ccncc1`, for which the AC50 in “cells [21]” is 8.47 µM (active).
